On the set-up of data set [1]: method as in PMID 17529893. The settings on record: frozen tissues (~2 mg), breast cancer patients, single dose of 20 mg TAM, samples 5 h postdrug administration; cited from earlier work.
The nature of data set [2]: LC-MS/MS quantitation of TAM and its metabolites in archival FFPE breast tumor tissue of TAM-treated patients. It is filed as in vivo, human. The settings on record: for Mean concentration in FFPE tissue, tumor recurrent patients: breast tumor recurrence patients (n = 16), mean 26 months on TAM; for Mean concentration in FFPE tissue, tumor recurrent patients / Mean concentration in FFPE tissue, tumor non-recurrent patients: 20 mg/day TAM for at least 6 months, mean ± SEM, Z-isomers quantitated; for Mean concentration in FFPE tissue, tumor non-recurrent patients: patients without tumor recurrence (n = 8), mean 22 months on TAM. On the procedure:
This study was approved by the Conjoint Health Research Ethics Board. FFPE tissue blocks were acquired from the archives of the pathology department at Foothills Medical Centre (Calgary, AB, Canada). Patients who had estrogen-receptor positive breast cancers diagnosed from 1990 to 2010 and treated with standard doses of TAM (20 mg/day of TAM for at least 6 months until time of biopsy with a treatment plan of 5 years on TAM) were selected for investigation. Patients were divided into two groups categorized as breast tumor recurrence (n = 16) and non-recurrence (n = 8).
Six 15 μm paraffin sections were removed from each FFPE tissue block and placed in a 1.5 mL eppendorf tube. The tissue sections were then deparaffinized by incubating with 1 mL of xylene for 10 min at room temperature. About 20 μL of I.S. was added followed by centrifugation at 20,000g for 5 min. Since xylene washes most of the TAM and metabolites from the paraffin sections, the supernatant was collected and transferred to a clean eppendorf tube. This procedure was repeated, and the two supernatants were combined followed by an SPE clean-up. Sample purification was performed via an SPE column vacuum manifold (Supelco, PA, USA). Samples were loaded onto the SPE columns previously conditioned with 3 mL of methanol and acetonitrile followed by a wash with 2 mL of 10 % methanol. The SPE cartridges were dried thereafter for 2 min, and the analytes were eluted with 2 mL of 5 % 50 mM ammonium acetate in methanol. Eluates were evaporated to dryness under a stream of nitrogen at 55 °C using a heating module obtained from Thermo Scientific/Pierce (Asheville, NC, USA). The dry extracts were then resuspended in 100 μL of acetonitrile/0.2 % formic acid (50:50).
Liquid chromatography was performed on a 1200 SL series LC system consisting of a binary pump, well-plate autosampler and thermostated column compartment (Agilent Technologies). Separation of TAM and metabolites was carried out using a Zorbax SB-C18 column (150 × 2.1 mm i.d., 3.5 μm particle size, Agilent Technologies) with a column temperature of 40 °C. Mobile phase consisted of 0.2 % formic acid and acetonitrile (60:40) at a flow rate of 0.2 mL/min with a gradient of 40–90 % of acetonitrile over 5 min. About 30 μL of the sample extract was injected onto the LC system. The total run time was 12 min including column equilibration.
MS detection of the analytes was accomplished by a 6410 triple-quadrupole mass spectrometer equipped with an electrospray ion source operating in the positive ion mode (Agilent Technologies). High purity nitrogen was used as the drying gas at a flow rate of 11 L/min with a gas temperature of 350 °C, and the nebulizer pressure was set at 35 psi. The capillary voltage was set at 4,000 V for each compound; however, the fragmentor voltages and the collision energies were operated at different settings for optimization of each analyte (Table 1). Quantitation was performed in multiple-reaction monitoring (MRM) mode, and the transitions of the precursors to product ions are summarized in Table 1. Data acquisition and analysis were performed using Mass Hunter Software v.B.02.01 (Agilent Technologies).

In the case of `CC/C(=C(\c1ccccc1)c1ccc(OCCNC)cc1)c1ccccc1` [DMT, N-desmethyl-tamoxifen], in data set [1], the “Average concentration in frozen tissue” value is 23.3 ng/g and the “Range of concentration in frozen tissue” value was 0 to 643 ng/g. In addition, in data set [2], the “Mean concentration in FFPE tissue, tumor recurrent patients” value is 324 ± 103 ng/g and the “Mean concentration in FFPE tissue, tumor non-recurrent patients” value is reported as 1,256 ± 282.8 ng/g.

With `CC/C(=C(\c1ccc(O)cc1)c1ccc(OCCNC)cc1)c1ccccc1` [Endoxifen, N-desmethyl-4-hydroxy-tamoxifen], in data set [2], the “Mean concentration in FFPE tissue, tumor recurrent patients” value was determined as 19.2 ± 5.08 ng/g and the “Mean concentration in FFPE tissue, tumor non-recurrent patients” value worked out at 94.6 ± 41.0 ng/g. In addition, the “Detection in FFPE tissue of tumor recurrent patients” value in data set [2] (some of the tumor recurrent patients (data not shown), possibly below the detection limit of the assay) is recorded as “not found”.

As for `CC/C(=C(\c1ccccc1)c1ccc(OCCN(C)C)cc1)c1ccccc1` [TAM, Tamoxifen], the “Average concentration in frozen tissue” value in data set [1] was 118 ng/g. For the same compound, in data set [2], the “Mean concentration in FFPE tissue, tumor recurrent patients” value stood at 122 ± 25.2 ng/g and the “Mean concentration in FFPE tissue, tumor non-recurrent patients” value turned out to be 147 ± 51.7 ng/g.

The record behind these values is paper PMC3931943, “Extraction of tamoxifen and its metabolites from formalin-fixed, paraffin-embedded tissues: an innovative quantitation method using liquid chromatography and tandem mass spectrometry” (Cancer Chemotherapy and Pharmacology, 2014).
